According to PubChem BioAssay AID1241 (SRMLSC, 2008):

assay: compounds inducing NF-kB luciferase expression – cell-based, SH-SY5Y, dose response (AID 1241); details: SH-SY5Y NF-kB promoter luciferase reporter, fold induction

SMILES | EC50 [µM]
CC(=Nc1cccc(O)c1)c1sc2ccccc2c1O | 2.2
Cn1cccc1C(=O)OCc1csc(-c2ccccc2)n1 | 0.768
COc1cccc(CNc2cnc3ccccc3c2)c1O | 13.9
O=C(Nc1ccc2c(c1)OCO2)c1ccc(Cl)s1 | 1.8
CC(C)(C)c1ccc(C(=O)Nc2cccc([N+](=O)[O-])c2)cc1 | 15.8
O=C(CSc1nnnn1-c1ccccc1)Nc1nsc(-c2ccccc2)n1 | 14.2
O=C(Nc1ccc2c(c1)OCCO2)c1ccc(Br)s1 | 0.609
COc1cccc(C(=O)/C=C/Nc2cccc(O)c2)c1 | 1.29
Nc1cccc(-c2nc3ccccc3s2)c1 | 1.41
CC(=O)Nc1cccc(-c2csc(Nc3ccccn3)n2)c1 | 2.67
CC(=Nc1ccc(O)cc1)c1sc2ccccc2c1O | 2.16
O=C(Cc1cccs1)Nc1nc2c(s1)CCCC2 | 20.2
COc1ccc2c(c1OC)C(=O)OC2Nc1nc(-c2cc3ccccc3oc2=O)cs1 (stereo not drawn) | 2.1
Clc1cc(Cl)c(OCc2nc(-c3ccccn3)no2)cc1Cl | 1.85
CCOc1ccc2nc(N3CCCCCC3)sc2c1 | 3.69
Brc1ccc(-c2ncc(-c3ccccc3)cn2)cc1 | 3.87
O=C(Nc1cccnc1)c1cc2c(ccc3ccccc32)o1 | 3.46
Oc1cccc(-c2nc3ccccc3s2)c1 | 4.1
N/C(=N\OC(=O)c1ccc(Cl)cc1Cl)c1cccnc1 | 2.1
O=C(NCc1ccco1)c1ccc([N+](=O)[O-])o1 | 6.89
COc1ccccc1/C=C/C(=O)Nc1ccc2c(c1)OCCO2 | 1.19
CC(=O)Nc1ccc(-c2csc(Nc3cccc(C)n3)n2)cc1 | 1
Fc1ccc(-c2cn3cc(C(F)(F)F)cc(Cl)c3n2)cc1 | 4.45

SMILES | EC50 [µM]
O=C(Nc1ccc2c(c1)OCO2)c1ccc2c(c1)OCO2 | 1.23
O=[N+]([O-])c1cc(O)c2ncccc2c1 | 7.94
O=C(/C=C/c1ccco1)Nc1ccc2c(c1)OCCO2 | 1.28
O=C(CSc1cccc[n+]1[O-])c1cc(Cl)ccc1Cl | 1.95
Oc1ccc(N=Nc2n[nH]c(-c3ccccc3)n2)cc1 | 3.99
COc1ccc(C(=O)Nc2cc(OC)nc(OC)n2)cc1 | 12
CNC(=O)Oc1cccc(-c2cn3cc(Cl)ccc3n2)c1 | 1.26
Cc1nn(-c2ccccc2)c(Cl)c1/C=N/Nc1ccc(Cl)c(C(=O)O)c1 | 11.3
O=C(Nc1nc2ccccc2s1)c1ccc(F)cc1 | 1.2
Cc1ccccc1-c1cc(-c2ccccc2O)on1 | 9.69
COc1ccc(-c2csc(-c3ccccc3)n2)c(OC)c1 | 6.74
Fc1cccc(F)c1CSc1nc2ccccc2[nH]1 | 4.34
O=S1(=O)N=C(Nc2nc3c(s2)CCCC3)c2ccccc21 | 21.8
O=C(/C=C/c1ccccc1[N+](=O)[O-])Nc1ccccc1 | 10.4
O=C(NC(=S)Nc1ccc2c(c1)OCCO2)c1ccccc1F | 1.74
CC(=O)c1sc(N/N=C\c2ccccc2O)nc1C | 5.53
CCOC(=O)c1sc2nc(-c3cccnc3)ccc2c1N | 1.35
COc1ccc2nc(NC(=O)c3ccoc3C)sc2c1 | 3.99
Nc1cccc(-c2cn3cc(C(F)(F)F)cc(Cl)c3n2)c1 | 0.682
NC(=O)c1ccccc1N/C=C/C(=O)c1cccs1 | 4.95
CCOC(=O)c1cnc(SCc2ccccc2)nc1N | 8.92
Cc1cccc(-n2ncc3c(NC4CCCCC4)ncnc32)c1 | 2.33
CCSc1ccc(-c2ccc(C)cc2)nn1 | 0.69

SMILES | EC50 [µM]
O=C(/C=C/Nc1ccccc1F)c1ccc(Br)cc1 | 0.595
Cn1cc([N+](=O)[O-])c(C(=O)Nc2ccc(-c3nc4ccccc4[nH]3)cc2)n1 | 1.41
Cc1c(C(=O)Nc2nc3ccccc3[nH]2)oc2ccccc12 | 1.38
CCCCOc1ccc(-c2csc(N)n2)cc1[N+](=O)[O-] | 14.1
COc1cc(SC)ccc1C(=O)NCCOc1ccccc1Cl | 15.5
Cc1ccc(/C=C(\C#N)c2nc3ccccc3[nH]2)s1 | 0.637
O=[N+]([O-])c1cc(Cl)ccc1-c1nc(-c2ccccc2)no1 | 3.2
O=C(c1ccccc1)c1cnc(-c2ccc(Cl)cc2)s1 | 1.25
Cn1cccc1C(=O)C(=O)Nc1ccc(Cl)cc1 | 25.2
Cc1ccc(C(=O)Nc2ccc3nccnc3c2)cc1 | 1.11
O=C(CCc1ccccc1)Nc1ccc2ccccc2n1 | 16.2
O=C(CCCc1ccccc1)N1CCc2ccccc21 | 2.57
O=C1/C(=C\c2ccco2)CCC/C1=C\c1ccco1 | 5
O=C(NC1CCCCCCC1)c1ccc2c(c1)OCO2 | 11
Cc1ccc(-c2nc3cc(Cl)ccc3o2)cc1 | 1.75
Cc1ccc2sc(-c3ccc(NC(=O)/C=C\C(=O)O)cc3)nc2c1 | 4.83
COc1ccccc1N1CCN(c2ccc(-c3ccccc3)nn2)CC1 | 0.718
CC(C)c1ccc(/C=N/NC(=O)c2cccc(Cl)c2)cc1 | 28.8
Cc1ccc(OCC(=O)Nc2ccccc2[N+](=O)[O-])c(Br)c1 | 9.49
O=C(c1cc(-c2cccc(O)c2)on1)N1CCCCC1 | 5.51
Cc1ccc(-n2c(C)cc(C(=O)CSc3nnnn3C)c2C)cc1 | 1.32
Nc1cccn2c(-c3ccc(Cl)cc3)cnc12 | 3.63
